The text below walks through data of ChEMBL document CHEMBL4837230, “Thiophene-2-carboxamide derivatives of anthraquinone: A new potent antitumor chemotype” (Eur J Med Chem, 2021).

SMILES strings stand for the structures.

Test [1] relates to K562. The experiment in a line: Induction of cell cycle arrest in human K562 cells assessed as increase in accumulation at S phase at 2.5 uM after 4 hrs by flow cytometric analysis (reference value: 47.1%). Format: functional. For orientation: Flow cytometry measures light scatter and fluorescence of single cells or particles in a stream.
For test [2], the system named is K562. As to the kind of experiment: Induction of cell cycle arrest in human K562 cells assessed as increase in accumulation at G2/M phase at 2.5 uM after 4 hrs by flow cytometric analysis (reference value: 19.7%). The test is classed as functional.

For the compound `N[C@H]1CCN(C(=O)c2cc3c(O)c4c(c(O)c3s2)C(=O)c2ccccc2C4=O)C1`, the Activity came to 40.1% with K562 [1] and 17.3% with K562 [2].
